Earlier results as cited in patent US11033613B2, “Methods and compositions for treating cancer” (Memorial Sloan Kettering Cancer Center, priority 2015, dated 2021).

Test system: CD4+ and CD8+ responses
Conditions: according to data from preclinical and phase 1 studies

Sequence: SGQAYMFPNAPYLPSCLES [WT1-122A1 long]
- stimulation of CD4+ and CD8+ responses: stimulate both CD4+ and CD8+ responses
